Results published in patent US10214507B2, “Carbazole-containing amides, carbamates, and ureas as cryptochrome modulators” (Reset Therapeutics, Inc., priority 2014, dated 2019).

Tested on: stable U20S reporter cells harboring Per2-dLuc
Assay: Per2 assay for evaluating the potency of test compounds (circadian luciferase reporter)
Format: cell-based
Conditions: amplitude of Per2-dLuc luminescence vs log concentration
Procedure: Compounds were screened by using a high-throughput circadian assay system as previously described in Zhang, E. E. et al. Cell, 2009, 139, 199-210. In brief, stable U20S reporter cells harboring Per2-dLuc were plated at a density of 30,000 cells/well in Corning 96-well, solid white, flat bottom, TC-treated microplates (Corning®), and incubated for 48 hours at 37° C. in the presence of 5% CO2 in a medium of Dulbecco's Modified Eagle Medium (DMEM) supplemented with 10% fetal bovine serum (FBS) and penicillin (100 units/mL)-streptomycin (100 μg/mL). […] DMSO stocks are then serially diluted in DMSO, typically diluting 3-fold for each dilution step. Following the 48 h period, cell culture medium is removed from plated cells and cells are synchronized with 200 μL/well of complete cell culture medium (described above), supplemented with 5 μM forskolin (Tocris®) and 1 mM beetle luciferin (Promega®). Immediately following synchronization, 1 μL of compound dilution is added to each well. Plates are sealed, shaken briefly, and gene expression was monitored by measuring luminescence (Tecan® Infinite M200 or Tecan® Infinite M200 Pro) continuously for a minimum of 3 days at 35° C. Raw luminescence data (counts) are first analyzed using Multicycle™ software (Actimetrics, Inc.) to determine the amplitude (amp), period, and phase (phz) for each compound concentration. The period length for control wells (i.e. no compound, DMSO only) should be 26-30 h. Amp data are then plotted against the logarithm compound concentration (M) and analyzed by nonlinear regression analysis to determine the EC50.

Structure (SMILES) | EC50
CC(O)(CN1CCCCC1=O)Cn1c2ccccc2c2ccccc21 (centres unmarked) [Compound 66, 1-(3-(9H-carbazol-9-yl)-2-hydroxy-2-methylpropyl)piperidin-2-one] | 523 nM
O=C1CC(C2CC2)CN1CC(O)Cn1c2ccccc2c2ccccc21 (centres unmarked) [Compound 65, 1-(3-(9H-carbazol-9-yl)-2-hydroxypropyl)-4-cyclopropylpyrrolidin-2-one] | 1030 nM
O=C1[C@H]2CC[C@H](C2)N1C[C@@H](O)Cn1c2ccccc2c2ccccc21 [Compound 108, (1R,4S)-2-((S)-3-(9H-carbazol-9-yl)-2-hydroxypropyl)-2-azabicyclo[2.2.1]heptan-3-one] | 750 nM
CC(C)C1CCN(CC(O)Cn2c3ccc(F)cc3c3cc(F)ccc32)C1=O (centres unmarked) [Compound 22, 1-(3-(3,6-difluoro-9H-carbazol-9-yl)-2-hydroxypropyl)-3-isopropylpyrrolidin-2-one] | 261 nM
O=C1N(CC(O)Cn2c3ccc(F)cc3c3cc(F)ccc32)CCC1(F)F (centres unmarked) [Compound 58, 1-(3-(3,6-difluoro-9H-carbazol-9-yl)-2-hydroxypropyl)-3,3-difluoropyrrolidin-2-one] | 716 nM
O=C1[C@H](F)CCN1C[C@H](O)Cn1c2ccccc2c2ccccc21 [Compound 121, (R)-1-((R)-3-(9H-carbazol-9-yl)-2-hydroxypropyl)-3-fluoropyrrolidin-2-one] | 210 nM
CCC1CCC(=O)N1CC(O)Cn1c2ccc(F)cc2c2cc(F)ccc21 (centres unmarked) [Compound 32, 1-(3-(3,6-difluoro-9H-carbazol-9-yl)-2-hydroxypropyl)-5-ethylpyrrolidin-2-one] | 539 nM
CCC1CCCN(CC(O)Cn2c3ccc(F)cc3c3cc(F)ccc32)C1=O (centres unmarked) [Compound 24, 1-(3-(3,6-difluoro-9H-carbazol-9-yl)-2-hydroxypropyl)-3-ethylpiperidin-2-one] | 332 nM
C[C@H]1CN(C[C@H](O)Cn2c3ccc(F)cc3c3cc(F)ccc32)C(=O)N1 [Compound 135, (S)-1-((R)-3-(3,6-difluoro-9H-carbazol-9-yl)-2-hydroxypropyl)-4-methylimidazolidin-2-one] | 1130 nM
O=C1N(CC(O)Cn2c3ccc(F)cc3c3cc(F)ccc32)CCCN1c1ccccc1 (centres unmarked) [Compound 75, 1-(3-(3,6-difluoro-9H-carbazol-9-yl)-2-hydroxypropyl)-3-phenyltetrahydropyrimidin-2(1H)-one] | 171 nM
CC1(C)CCCN(CC(O)Cn2c3ccc(F)cc3c3cc(F)ccc32)C1=O (centres unmarked) [Compound 16, 1-(3-(3,6-difluoro-9H-carbazol-9-yl)-2-hydroxypropyl)-3,3-dimethylpiperidin-2-one] | 463 nM
O=C1N(CC(O)Cn2c3ccc(F)cc3c3cc(F)ccc32)CCN1C1CCCCC1 (centres unmarked) [Compound 88, 1-cyclohexyl-3-(3-(3,6-difluoro-9H-carbazol-9-yl)-2-hydroxypropyl)imidazolidin-2-one] | 310 nM
C[C@H]1CN(C[C@H](O)Cn2c3ccccc3c3ccccc32)C(=O)N1 [Compound 137, (S)-1-((R)-3-(9H-carbaxol-9-yl)-2-hydroxypropyl)-4-methylimidazolidin-2-one] | 766 nM
CC1CCCC(=O)N1CC(C)(O)Cn1c2ccc(F)cc2c2cc(F)ccc21 (centres unmarked) [Compound 40, 1-(3-(3,6-difluoro-9H-carbazol-9-yl)-2-hydroxy-2-methylpropyl)-6-methylpiperidin-2-one] | 484 nM
C[C@@](O)(CN1CC[C@H](F)C1=O)Cn1c2ccc(F)cc2c2cc(F)ccc21 [Compound 125, (S)-1-((S)-3-(3,6-difluoro-9H-carbazol-9-yl)-2-hydroxy-2-methylpropyl)-3-fluoropyrrolidin-2-one] | 451 nM
O=C1CC(C2CC2)CN1CC(O)Cn1c2ccc(F)cc2c2cc(F)ccc21 (centres unmarked) [Compound 42, 4-cyclopropyl-1-(3-(3,6-difluoro-9H-carbazol-9-yl)-2-hydroxypropyl)pyrrolidin-2-one] | 420 nM
O=C1C(c2ccccc2)CCN1CC(O)Cn1c2ccc(F)cc2c2cc(F)ccc21 (centres unmarked) [Compound 53, 1-(3-(3,6-difluoro-9H-carbazol-9-yl)-2-hydroxypropyl)-3-phenylpyrrolidin-2-one] | 1340 nM
CC1CCN(CC(O)Cn2c3ccccc3c3ccccc32)C(=O)C1 (centres unmarked) [Compound 61, 2-(3-(9H-carbazol-9-yl)-2-hydroxypropyl)-4-methylpiperidin-2-one] | 710 nM
C[C@@H]1CCC(=O)N(C[C@H](O)Cn2c3ccccc3c3ccccc32)C1 [Compound 131, (R)-1-((R)-3-(9H-carbazol-9-yl)-2-hydroxypropyl)-5-methylpiperidin-2-one] | 280 nM

Structure (SMILES) | EC50
O=C1N(CC(O)Cn2c3ccc(F)cc3c3cc(F)ccc32)CCCN1C1CCC1 (centres unmarked) [Compound 78, 1-cyclobutyl-3-(3-(3,6-difluoro-9H-carbazol-9-yl)-2-hydroxypropyl)tetrahydropyrimidin-2(1H)-one] | 440 nM
CC1CC(=O)N(CC(O)Cn2c3ccc(F)cc3c3cc(F)ccc32)C1C (centres unmarked) [Compound 47, 1-(3-(3,6-difluoro-9H-carbazol-9-yl)-2-hydroxypropyl)-4,5-dimethylpyrrolidin-2-one] | 299 nM
CC(O)(CN1Cc2ccccc2NC1=O)Cn1c2ccc(F)cc2c2cc(F)ccc21 (centres unmarked) [Compound 102, 3-(3-(3,6-difluoro-9H-carbazol-9-yl)-2-hydroxy-2-methylpropyl)-3,4-dihydroquinazolin-2(1H)-one] | 455 nM
C[C@@H]1CCC(=O)N1C[C@@H](O)Cn1c2ccccc2c2ccccc21 [Compound 113, (R)-1-((S)-3-(9H-carbazol-9-yl)-2-hydroxypropyl)-5-methylpyrrolidin-2-one] | 948 nM
O=C1N(CC(O)Cn2c3ccccc3c3ccccc32)CCCN1C1CC1 (centres unmarked) [Compound 99, 1-(3-(9H-carbazol-9-yl)-2-hydroxypropyl)-3-cyclopropyltetrahydropyrimidin-2(1H)-one] | 555 nM
O=C1N(CC(O)Cn2c3ccc(F)cc3c3cc(F)ccc32)CCN1c1ccccc1 (centres unmarked) [Compound 89, 1-(3-(3,6-difluoro-9H-carbazol-9-yl)-2-hydroxypropyl)-3-phenylimidazolidin-2-one] | 438 nM
CN1CCCN(CC(O)Cn2c3ccccc3c3ccccc32)C1=O (centres unmarked) [Compound 2, 1-(3-(9H-carbazol-9-yl)-2-hydroxypropyl)-3-methyltetrahydropyrimidin-2(1H)-one] | 736 nM
CC1CCC(=O)N(CC(C)(O)Cn2c3ccc(F)cc3c3cc(F)ccc32)C1 (centres unmarked) [Compound 38, 1-(3-(3,6-difluoro-9H-carbazol-9-yl)-2-hydroxy-2-methylpropyl)-5-methylpiperidin-2-one] | 1220 nM
CC1CCN(CC(O)Cn2c3ccc(F)cc3c3cc(F)ccc32)C1=O (centres unmarked) [Compound 29, 1-(3-(3,6-difluoro-9H-carbazol-9-yl)-2-hydroxypropyl)-3-methylpyrrolidin-2-one] | 422 nM
CN1CCCN(CC(O)Cn2c3ccc(F)cc3c3cc(F)ccc32)C1=O (centres unmarked) [Compound 6, 1-(3-(3,6-difluoro-9H-carbazol-9-yl)-2-hydroxypropyl)-3-methyltetrahydropyrimidin-2(1H)-one] | 719 nM
O=C1N(CC(O)Cn2c3ccc(F)cc3c3cc(F)ccc32)CCN1C1CCC1 (centres unmarked) [Compound 93, 1-cyclobutyl-3-(3-(3,6-difluoro-9H-carbazol-9-yl)-2-hydroxypropyl)imidazolidin-2-one] | 129 nM
CC(O)(CN1CCCC(C2CCC2)C1=O)Cn1c2ccc(F)cc2c2cc(F)ccc21 (centres unmarked) [Compound 52, 3-cyclobutyl-1-(3-(3,6-difluoro-9H-carbazol-9-yl)-2-hydroxy-2-methylpropyl)piperidin-2-one] | 1360 nM
CCN1CCN(CC(O)Cn2c3ccc(F)cc3c3cc(F)ccc32)C1=O (centres unmarked) [Compound 73, 1-(3-(3,6-difluoro-9H-carbazol-9-yl)-2-hydroxypropyl)-3-ethylimidazolidin-2-one] | 1110 nM
C[C@@](O)(CN1CC[C@@H](F)C1=O)Cn1c2ccc(F)cc2c2cc(F)ccc21 [Compound 126, (R)-1-((S)-3-(3,6-difluoro-9H-carbazol-9-yl)-2-hydroxy-2-methylpropyl)-3-fluoropyrrolidin-2-one] | 958 nM
C[C@H]1CCC(=O)N(C[C@H](O)Cn2c3ccccc3c3ccccc32)C1 [Compound 129, (S)-1-((R)-3-(9H-carbazol-9-yl)-2-hydroxypropyl)-5-methylpiperidin-2-one] | 748 nM
O=C1NCCCN1CC(O)Cn1c2ccccc2c2ccccc21 (centres unmarked) [Compound 3, 1-(3-(9H-carbazol-9-yl)-2-hydroxypropyl)tetrahydropyrimidin-2(1H)-one] | 299 nM
C[C@@](O)(CN1CC[C@@H](F)C1=O)Cn1c2ccccc2c2ccccc21 [Compound 123, (R)-1-((S)-3-(9H-carbazol-9-yl)-2-hydroxy-2-methylpropyl)-3-fluoropyrrolidin-2-one] | 311 nM
CC1CN(C)C(=O)N(CC(O)Cn2c3ccc(F)cc3c3cc(F)ccc32)C1 (centres unmarked) [Compound 94, 1-(3-(3,6-difluoro-9H-carbazol-9-yl)-2-hydroxypropyl)-3,5-dimethyltetrahydropyrimidin-2(1H)-one] | 833 nM
CC(O)(CN1CCC(F)C1=O)Cn1c2ccc(F)cc2c2cc(F)ccc21 (centres unmarked) [Compound 10, 1-(3-(3,6-difluoro-9H-carbazol-9-yl)-2-hydroxy-2-methylpropyl)-3-fluoropyrrolidin-2-one] | 487 nM
